This test deals with purified recombinant IDO (Homo sapiens, UniProt P14902). Put plainly: Enzymatic IDO inhibition assay (Takikawa et al., modified; kynurenine by HPLC). It is filed as biochemical. Particulars: result in words; oxidized dimeric analogues. On the procedure: The enzymatic inhibition assays were performed as described by Takikawa et al. [Takikawa, O.; Kuroiwa, T.; Yamazaki, F.; Kido, R. J Biol Chem, 1988, 263, 2041-2048.] with some modifications. Briefly, the reaction mixture (100 μl) contained potassium phosphate buffer (100 mM, pH 6.5) ascorbic acid (20 mM), catalase (200 units/ml), methylene blue (10 μM), purified recombinant IDO (2 ng/μl), and L-Trp (200 μM). The inhibitors were serially diluted ranging from 0.1 to 1000 μM. The reaction was carried out at 37° C. for 60 min and stopped by the addition of 30% (w/v) trichloroacetic acid (40 μl). To convert the product of Trp dioxygenation by IDO, N-formylkynurenine, to spectroscopically detectable kynurenine, the tubes were incubated at 50° C. for 30 min, followed by a centrifugation at 10000 g for 20 min. Lastly, 100 μl of supernatant from each probe was transfered to another tube for HPLC analysis. The mobile phase for HPLC measurements consisted of 50% sodium citrate buffer (40 mM, pH 2.25) and 50% methanol with 400 μM SDS. The flow rate through the S5-ODS1 column was chosen to be 1 ml/min, and kynurenine was detected at a wavelength of 365 nm.
Chain of purified recombinant IDO (P14902 whole entry): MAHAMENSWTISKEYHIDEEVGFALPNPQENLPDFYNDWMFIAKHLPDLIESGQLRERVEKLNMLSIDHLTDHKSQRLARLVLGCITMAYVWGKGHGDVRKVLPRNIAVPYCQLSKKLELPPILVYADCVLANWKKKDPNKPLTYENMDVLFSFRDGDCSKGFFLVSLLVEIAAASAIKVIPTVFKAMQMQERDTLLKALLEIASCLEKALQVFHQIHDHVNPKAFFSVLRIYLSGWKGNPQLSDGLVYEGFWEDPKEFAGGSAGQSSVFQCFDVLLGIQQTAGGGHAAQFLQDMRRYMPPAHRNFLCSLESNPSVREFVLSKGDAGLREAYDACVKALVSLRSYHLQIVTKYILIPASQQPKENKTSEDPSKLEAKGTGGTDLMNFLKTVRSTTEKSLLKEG

Structures are written as SMILES.

Our source for the activity in vitro values is patent US20110112282A1, “IDO INHIBITORS AND THERAPEUTIC USES THEREOF” (priority 2008, published 2011).

Regarding `CC(C)/C=C1/C=C(C2=C/C(=N\C(C)C)c3ccccc3C2=O)C(=O)c2ccccc21` [Example 23], the activity in vitro entry was “excellent activity”.
Take `CCC(CC)CC1C=C(C2=CC(CC(CC)CC)c3ccccc3C2=O)C(=O)c2ccccc21` (centres unmarked) [Example 24]: the activity in vitro result is “excellent activity”.
